How the values were obtained:
PdTRPV5/6-like = target: T1, PdTRPV5/6-like (Pocillopora damicornis, UniProt Z9K305B7A5); assay: outside-out patch clamp, HEK293; assay type: cell-based
T1 construct: full-length ORF, 724 residues, cloned from aquarium coral cDNA into pcDNA3.1, HEK293 transient expression; EGFP on separate plasmid; tetramer
T1 sequence (Z9K305B7A5 1-724): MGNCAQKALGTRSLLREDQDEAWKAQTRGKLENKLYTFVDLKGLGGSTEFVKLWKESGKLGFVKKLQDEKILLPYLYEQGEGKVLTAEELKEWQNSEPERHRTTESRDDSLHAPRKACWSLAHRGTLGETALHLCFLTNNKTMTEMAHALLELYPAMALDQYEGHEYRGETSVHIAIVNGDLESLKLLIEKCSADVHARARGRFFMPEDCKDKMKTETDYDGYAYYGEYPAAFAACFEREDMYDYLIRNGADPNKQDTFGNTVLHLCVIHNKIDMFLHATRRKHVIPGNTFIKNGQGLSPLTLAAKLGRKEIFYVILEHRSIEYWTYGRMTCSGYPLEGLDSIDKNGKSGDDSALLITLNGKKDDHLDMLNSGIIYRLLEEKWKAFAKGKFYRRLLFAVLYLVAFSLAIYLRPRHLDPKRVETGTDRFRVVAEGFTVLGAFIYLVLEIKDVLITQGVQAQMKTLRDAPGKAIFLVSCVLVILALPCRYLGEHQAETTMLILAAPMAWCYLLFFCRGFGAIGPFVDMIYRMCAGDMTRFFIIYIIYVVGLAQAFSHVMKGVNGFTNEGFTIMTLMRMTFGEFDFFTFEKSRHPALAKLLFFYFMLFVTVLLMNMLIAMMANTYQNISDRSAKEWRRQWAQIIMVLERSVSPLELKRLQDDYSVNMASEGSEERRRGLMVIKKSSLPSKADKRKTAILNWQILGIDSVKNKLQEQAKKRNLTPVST

hTRPV5 = target: T2, hTRPV5 (Homo sapiens, UniProt Q9NQA5); assay: outside-out patch clamp, HEK293; assay type: cell-based
T2 construct: gene TRPV5; EGFP on separate plasmid; tetramer
T2 sequence (Q9NQA5 whole entry): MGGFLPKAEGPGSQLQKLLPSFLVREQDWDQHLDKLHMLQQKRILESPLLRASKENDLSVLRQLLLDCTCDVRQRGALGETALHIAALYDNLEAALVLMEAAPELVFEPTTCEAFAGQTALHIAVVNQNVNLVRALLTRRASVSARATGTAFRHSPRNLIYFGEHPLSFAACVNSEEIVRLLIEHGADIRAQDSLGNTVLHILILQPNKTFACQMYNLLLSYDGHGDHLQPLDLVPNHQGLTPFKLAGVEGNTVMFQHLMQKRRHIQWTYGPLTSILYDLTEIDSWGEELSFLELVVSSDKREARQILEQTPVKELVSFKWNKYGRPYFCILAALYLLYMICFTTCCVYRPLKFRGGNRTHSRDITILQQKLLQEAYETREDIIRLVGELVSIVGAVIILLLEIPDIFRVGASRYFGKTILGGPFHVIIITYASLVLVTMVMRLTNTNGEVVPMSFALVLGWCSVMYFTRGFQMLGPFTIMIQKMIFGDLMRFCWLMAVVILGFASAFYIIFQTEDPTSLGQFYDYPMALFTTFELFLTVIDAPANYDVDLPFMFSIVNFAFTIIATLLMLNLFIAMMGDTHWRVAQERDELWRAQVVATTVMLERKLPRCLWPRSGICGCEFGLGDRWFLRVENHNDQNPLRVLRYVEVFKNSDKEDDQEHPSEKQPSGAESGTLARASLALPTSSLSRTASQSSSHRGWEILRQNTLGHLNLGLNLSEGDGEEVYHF

Structure (SMILES)	IC50 (PdTRPV5/6-like) [µM]	IC50 (hTRPV5) [µM]
CC(C)[C@@H]1CC[C@@H](C)C[C@H]1O [(-)-menthol]	120	–
Clc1ccc(COC(Cn2ccnc2)c2ccc(Cl)cc2Cl)c(Cl)c1 (centres unmarked) [miconazole]	–	0.0512
